Experiment [1] has as its target Cannabinoid receptor 1 (Homo sapiens) (UniProt P21554). Description: Binding affinity to CB1 receptor.
Experiment [2] has as its system Plasmodium falciparum. As to the kind of experiment: Antimicrobial activity against Plasmodium falciparum D6. It counts as functional, organism-based.
In experiment [3] the test system is Plasmodium falciparum. Description: Antimicrobial activity against Plasmodium falciparum W2. It is filed as functional, organism-based.
Another experiment relates to Candida albicans. As to the kind of experiment: Antimicrobial activity against Candida albicans ATCC 90028. It is filed as functional, organism-based.

Values after ≈ are worked out from the molar mass of the structure shown. Active and inactive are the calls of the source. The calls are words filed in the database; no cut-off is given here.

Sequence of Cannabinoid receptor 1 (Homo sapiens) (P21554 whole entry): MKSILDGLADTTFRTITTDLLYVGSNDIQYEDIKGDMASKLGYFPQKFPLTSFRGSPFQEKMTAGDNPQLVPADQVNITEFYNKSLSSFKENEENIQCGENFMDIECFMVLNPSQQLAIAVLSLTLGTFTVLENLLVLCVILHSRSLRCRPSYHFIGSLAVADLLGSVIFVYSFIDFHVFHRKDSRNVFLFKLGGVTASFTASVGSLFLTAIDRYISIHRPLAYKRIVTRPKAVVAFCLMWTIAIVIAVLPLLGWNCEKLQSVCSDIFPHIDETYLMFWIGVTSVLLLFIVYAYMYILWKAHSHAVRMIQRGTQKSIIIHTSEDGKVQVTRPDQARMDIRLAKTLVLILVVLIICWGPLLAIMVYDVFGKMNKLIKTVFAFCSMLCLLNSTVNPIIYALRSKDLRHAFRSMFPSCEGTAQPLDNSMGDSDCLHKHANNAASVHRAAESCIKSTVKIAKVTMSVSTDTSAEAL

Regarding `CCCCCc1cc2c(c(O)c1C(=O)OC(C)(C)[C@@H]1CC[C@@]3(C)CCCC(C)=C3C1)[C@@H]1C=C(C)CC[C@H]1C(C)(C)O2`, the result in experiment [1] was inactive.

With `CCCCCc1cc(O)c(C/C=C(\C)CCC=C(C)C)c(O)c1C(=O)O`, the outcome in experiment [1] was inactive.

Take `CCCCCc1cc2c(c(O)c1C(=O)O)-c1cc(C)ccc1C(C)(C)O2`: the outcome in experiment [1] was inactive.

Regarding `CCCCCc1cc2c(c(O)c1C(=O)OC(C)(C)C1CC=C(C)CC1)[C@@H]1C=C(C)CC[C@H]1C(C)(C)O2` (some centres not stated), the outcome in experiment [1] was inactive.

Take `CCCCCc1cc2c(c(O)c1C(=O)OC1(C(C)C)CC=C(C)CC1)[C@@H]1C=C(C)CC[C@H]1C(C)(C)O2` (some centres not stated): the outcome in experiment [1] was inactive.

For the compound `CCCCCc1cc(O)c(C/C=C(\C)CCC=C(C)C)c(O)c1C(=O)OC(C)(C)[C@@H]1CC[C@@]2(C)CCCC(C)=C2C1`, the result in experiment [1] was inactive.

Turning to `CCCCCc1cc2c(c(O)c1C(=O)O[C@H]1C(C)(C)[C@@H]3CC[C@@]1(C)C3)[C@@H]1C=C(C)CC[C@H]1C(C)(C)O2`, the outcome in experiment [1] was inactive.

Turning to `CCCCCc1cc2c(c(O)c1C(=O)O[C@H]1C[C@H]3CC[C@@]1(C)C3(C)C)[C@@H]1C=C(C)CC[C@H]1C(C)(C)O2`, the outcome in experiment [1] was inactive.

Consider `CCCCCc1cc(O)c(C/C=C(\C)CCC=C(C)C)c(O)c1C(=O)O[C@@]1(C)CC[C@@H](C(C)C)[C@@H]2C=C(C)CC[C@H]21`, for which the outcome in experiment [1] was inactive.

One may read the IC50 as the midpoint of a concentration-inhibition curve. Higher therefore signals weaker potency in that assay. For `CCCCCc1cc2c(c(O)c1C(=O)OC1(C(C)C)CC=C(C)CC1)-c1cc(C)ccc1C(C)(C)O2` (configuration not stated), the IC50 in the experiment with Plasmodium falciparum [2] amounted to 2.7 µg/mL (≈ 5.5 µM); in the experiment with Plasmodium falciparum [3], 2.4 µg/mL (≈ 4.89 µM); in the experiment with Candida albicans it was 8.5 µg/mL (≈ 17.3 µM). The outcome in experiment [1] was inactive.

For `CCCCCc1cc2c(c(O)c1C(=O)O[C@@]1(C)CC[C@@H](C(C)C)[C@@H]3C=C(C)CC[C@H]31)[C@@H]1C=C(C)CC[C@H]1C(C)(C)O2`, in experiment [1], the result was inactive.

Regarding `CCCCCc1cc2c(c(O)c1C(=O)O[C@@H]1C(C)(C)[C@@H]3CC[C@@]1(C)C3)[C@@H]1C=C(C)CC[C@H]1C(C)(C)O2`, the result in experiment [1] was inactive.

Take `CCCCCc1cc2c(c(O)c1C(=O)O)[C@@H]1C=C(C)CC[C@H]1C(C)(C)O2`: in experiment [1], the result was inactive.

`CCCCCc1cc2c(c(O)c1C(=O)O[C@H]1C[C@H]3CC[C@]1(C)C3(C)C)[C@@H]1C=C(C)CC[C@H]1C(C)(C)O2`: the outcome in experiment [1] was inactive.

Values taken from ChEMBL document CHEMBL1149853, “Cannabinoid ester constituents from high-potency Cannabis sativa” (J Nat Prod, 2008).
